Data reported in publication PMC13005684 (Advanced Healthcare Materials, 2025).
Structures can show the parent of a compound that is named as a salt.

Columns and labels:
MDA-MB-231 cells [1] = experiment: cells; assay type: cell-based; conditions: Homo sapiens, MDA-MB-231, 72 h, read-out: 3-day IC50
MDA-MB-231 cells [2] = assay type: cell-based, human

## COc1cccc2c1C(=O)c1c(O)c3c(c(O)c1C2=O)C[C@@](O)(C(=O)CO)C[C@@H]3O[C@H]1C[C@H](N)[C@H](O)[C@H](C)O1 [doxorubicin, doxorubicin hydrochloride]
MDA-MB-231 cells [1]
  IC50: ~510 nM
MDA-MB-231 cells [2]
  cell death pathway triggered: necrotic cell death pathway

## COC1=C2C[C@@H](C)C[C@H](OC)[C@H](O)[C@@H](C)/C=C(\C)[C@H](OC(N)=O)[C@@H](OC)/C=C\C=C(/C)C(=O)NC(=CC1=O)C2=O [geldanamycin, Geldanamycin]
MDA-MB-231 cells [1]
  IC50: 3700 nM
MDA-MB-231 cells [2]
  cell death pathway triggered: apoptosis
